EPA's ToxRefDB 2

What was measured:
[1] = tested on: rat; settings: Subchronic dermal toxicity, fischer, Topical, dose end: 13 week, group: systemic
[2] = tested on: dog; settings: Chronic toxicity; beagle; Oral; Feed; dose end: 52 week; group: systemic; systemic / hematology / erythrocyte (rbc) count differential / erythrocyte (rbc) + systemic / hematology / heinz body / heinz body + …
[3] = tested on: mouse; settings: Subchronic oral toxicity in rodents, b6c3f1, Feed, dose end: 14 week, group: systemic, systemic / clinical chemistry / bilirubin / total bilirubin + systemic / clinical chemistry / cholesterol / cholesterol + systemic / …
[4] = tested on: rat; settings: Combined chronic toxicity/carcinogenicity, wistar, Oral, Feed, dose end: 24 month, group: systemic
[5] = tested on: mouse; settings: Carcinogenicity; b6c3f1; Oral; Feed; dose end: 2 year; group: systemic; systemic / organ weight / kidney / nos + systemic / pathology microscopic / kidney / vacuolization + systemic / organ weight / kidney / …
[6] = tested on: rat; settings: Multigenerational reproductive toxicity study, sprague dawley, Oral, Feed, dose end: 2 generation
[7] = tested on: dog; settings: Subchronic oral toxicity in nonrodent, beagle, Feed, dose end: 90 day, group: systemic
[8] = tested on: rabbit; settings: Prenatal developmental toxicity study, other, Oral, Gavage/Intubation, dose end: 18 GD
[9] = tested on: rat; settings: Subchronic oral toxicity in rodents, wistar, Feed, dose end: 90 day, group: systemic
[10] = systemic / pathology microscopic / skin / inflammation
[11] = systemic / pathology microscopic / skin / inflammation + systemic / in life observation / clinical signs / desquamation + systemic / in life…
[12] = systemic / clinical chemistry / lactic acid dehydrogenase (ldh) / lactic acid dehydrogenase (ldh)
[13] = group: offspring, systemic / in life observation / body weight / offspring (pup) weight
[14] = group: offspring, systemic / in life observation / body weight / offspring (pup) weight + developmental / offspring survival late / [other] / [other]
[15] = group: parental, systemic / clinical chemistry / alkaline phosphatase (alp/alk) / alkaline phosphatase (alp/alk) + systemic / clinical chemistry / creatinine…
[16] = systemic / hematology / heinz body / heinz body
[17] = systemic / hematology / heinz body / heinz body + systemic / clinical chemistry / alkaline phosphatase (alp/alk) / alkaline phosphatase (alp…
[18] = group: developmental, developmental / developmental malformation / bone / unossified + systemic / in life observation / body weight / fetal weight
[19] = group: maternal, systemic / in life observation / body weight / body weight gain + systemic / in life observation / clinical signs / scybala + systemic / in …
[20] = systemic / clinical chemistry / alanine aminotransferase (alt/sgpt) / alanine aminotransferase (alt/sgpt) + systemic / in life observation…
[21] = systemic / organ weight / liver / absolute + systemic / organ weight / liver / relative to body weight

Compound: CCCCCCCCCCSCCN.Cl [2-(Decylthio)ethanamine hydrochloride]
- LOAEL [1, 10]: 1 mg/kg/day
- NOAEL [1, 10]: < 1 mg/kg/day
- LEL [1, 11]: 1 mg/kg/day
- NEL [1, 11]: < 1 mg/kg/day

Compound: CC1(C(=O)Nc2ccc(O)c(Cl)c2Cl)CCCCC1 [Fenhexamid]
- LEL [2]: 124 mg/kg/day
- LOAEL [2]: 124 mg/kg/day
- NEL [2]: 17.4 mg/kg/day
- NOAEL [2]: 17.4 mg/kg/day
- LEL [3]: 3280 mg/kg/day
- LOAEL [3]: 3280 mg/kg/day
- NEL [3]: 266 mg/kg/day
- NOAEL [3]: 266 mg/kg/day
- LEL [4, 12]: 28 mg/kg/day
- NEL [4, 12]: < 28 mg/kg/day
- NOAEL ([4]; systemic / clinical chemistry / lactic acid dehydrogenase (ldh) / lactic acid dehydrogenase (ldh) + systemic / pathology microscopic / …): 28 mg/kg/day
- LOAEL ([4]; systemic / pathology microscopic / intestine large / hyperplasia + systemic / pathology microscopic / spleen / hematopoietic cell …): 292 mg/kg/day
- LEL [5]: 807 mg/kg/day
- LOAEL [5]: 807 mg/kg/day
- NEL [5]: 247 mg/kg/day
- NOAEL [5]: 247 mg/kg/day
- LEL [6, 13]: 406 mg/kg/day
- LOAEL [6, 13]: 406 mg/kg/day
- NEL [6, 14]: 38.2 mg/kg/day
- NOAEL [6, 14]: 38.2 mg/kg/day
- LEL [6, 15]: 406 mg/kg/day
- LOAEL [6, 15]: 406 mg/kg/day
- NEL [6, 15]: 38.2 mg/kg/day
- NOAEL [6, 15]: 38.2 mg/kg/day
- LEL [7, 16]: 239 mg/kg/day
- LOAEL [7, 16]: 239 mg/kg/day
- NEL [7, 17]: 33.9 mg/kg/day
- NOAEL [7, 17]: 33.9 mg/kg/day
- LEL [8, 18]: 1000 mg/kg/day
- LOAEL [8, 18]: 1000 mg/kg/day
- NEL [8, 18]: 300 mg/kg/day
- NOAEL [8, 18]: 300 mg/kg/day
- LEL [8, 19]: 300 mg/kg/day
- LOAEL [8, 19]: 300 mg/kg/day
- NEL [8, 19]: 100 mg/kg/day
- NOAEL [8, 19]: 100 mg/kg/day
- LOAEL [9, 20]: 904 mg/kg/day
- NOAEL [9, 20]: 415 mg/kg/day
- LEL [9, 21]: 202 mg/kg/day
- NEL [9, 21]: < 202 mg/kg/day
